# Laboratory results from patent US4139538A, “Oxazolidinones as therapeutic agents” (priority 1975, dated 1979).
# Key:
# [1] = maximum electric shock test (MES), protection against tonic extensor cramp; type: in vivo, mice
# [2] = prolongation of sodium hexobarbitone narcosis; type: in vivo, mice; details: for ED (200%): Mus musculus, po, 1 h, mice, sodium hexobarbitone 70 mg/kg i.v., 60 minutes after p.o. administration, extension of the narcosis period to 200%, read-out: Prolongation of narcosis ED200; for effectiveness in prolonging sleep compared with known hypnotics and tranquillizers: versus e.g. chlorzoxazone and meprobamate
# [3] = minimum pentetrazole shock test (min PS), protection against clonic cramp; type: in vivo, mice; details: Mus musculus, po, 1 h, read-out: Anticonvulsive activity Min PS ED50;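 note: albino NMRI mice, oral dosing, clonic seizures provoked 60 min later by subcutaneous pentetrazole 70 mg/kg, ED50 is the dose protecting half of animals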
# [4] = paralysis: loss of the postural and balancing reflexes (lying down); type: in vivo, mice; details: for ED50: Mus musculus, po, read-out: Paralysis ED50; for effectiveness in relaxing the muscle system compared with known hypnotics and tranquillizers: versus e.g. chlorzoxazone and meprobamate
# [5] = administration of a tablet to a human suffering from motor restlessness, with electroencephalogram; type: in vivo; details: 50 mg
# Method: A tablet produced in accordance with Example 75 consisting of 50 mg. of the active compound according to Example 43 and the equivalent amount of the other ingredients was administered to a human suffering from motor restlessness.
# in vivo = details: mouse, po
# [6] = Mus musculus, po, 1 h; read-out: Anticonvulsive activity MES ED50
# [7] = mice, 70 mg/kg pentetrazole s.c., 60 minutes after p.o. administration, protection in 50% of the animals
# [8] = mice, p.o., lying down in 50% of the animals
# [9] = MES and min PS test models; versus trimethadione and dipropyl acetate
# [10] = Mus musculus, po, 1 h, read-out: Anticonvulsive activity MES ED50
Structure (SMILES),"ED50 [1, 6] [mg/kg]",ED (200%) [2] [mg/kg],"ED50 [3, 7] [mg/kg]",effectiveness in prolonging sleep compared with known hypnotics and tranquillizers [2],"ED50 [4, 8] [mg/kg]",effectiveness in relaxing the muscle system compared with known hypnotics and tranquillizers [4],electroencephalogram findings [5],indications of a shallow sleep phase in the electroencephalogram ([5]; 5 hours after administration),effect reported by the patient ([5]; within a period of several minutes),LD50 at 168 h (in vivo) [mg/kg],"anticonvulsive effect compared with conventional antiepileptics [1, 9]","ED50 [1, 10] [mg/kg]",ED50 [3] [mg/kg],ED50 [4] [mg/kg]
"O=C1NC(=O)C(c2ccccc2)(c2ccccc2)N1 [Diphenylhydantoin, reference compound]",10,50,,,,,,,,,,,,
C=CCC(O)(CC=C)C1NC(=O)OC1c1ccccc1 (stereo not shown) [Example 43],25,15,> 464,distinctly more effective,225,distinctly more effective,characteristic signs of a sedation with a decrease of effectiveness in the alpha and beta band and a change of the range of main activity to the lower frequency range,clearly increased,"muscle relaxing, tiring and ataraktic sedation",1000,,,,
CCCC(O)(CCC)C1COC(=O)N1 (stereo not shown) [Example 45],120,210,430,,1000,,,,,> 1000,,,,
"O=C1NC(C(O)c2ccc(Cl)cc2)CO1 (stereo not drawn) [Example 4, 4-(α-Hydroxy-p-chlorobenzyl)-oxazolidin-2-one]",125,160,140,,> 1000,,,,,> 1000,superior,,,
C=CCC(O)(c1ccccc1)C1COC(=O)N1 (stereo not shown) [Example 58],200,300,300,,1000,,,,,> 1000,,,,
C=CCN1C(=O)OC(c2ccccc2)C1C(C)(C)O (stereo not shown) [Example 39],145,130,> 464,,> 1000,,,,,1000,,,,
CC(C)(O)C1NC(=O)OC1c1ccccc1 (stereo not shown) [Example 37],59,650,130,,1000,,,,,> 1000,superior,,,
CCC(O)(c1ccccc1)C1COC(=O)N1 (stereo not shown) [Example 54],115,50,85,distinctly more effective,800,distinctly more effective,,,,> 1000,superior,,,
"CCC1(c2ccccc2)C(=O)NC(=O)NC1=O [Na-phenocarbital, reference compound]",,,,,,,,,,320,,11,30,150
CCCC(O)(CCC)C1NC(=O)OC1c1ccccc1 (stereo not shown) [Example 41],147,65,> 464,,> 1000,,,,,> 1000,,,,
"CCC(O)(c1ccccc1)C1NC(=O)OC1C (stereo not shown) [Example 18, 4-[-1-(1-Hydroxy-1-phenyl)-propyl]-5-methyl oxazolidin-2-one]",200,450,200,,> 1000,,,,,> 1000,,,,
CN1C(=O)OC(c2ccccc2)C1C(C)(C)O (stereo not shown) [Example 38],165,115,640,distinctly more effective,464,distinctly more effective,,,,> 1000,,,,
C=CCC(O)(CC=C)C1NC(=O)OC1C (stereo not shown) [Example 34],150,90,> 464,,1000,,,,,> 1000,,,,
CCC(O)(c1ccccc1)C1COC(=O)N1C (stereo not shown) [Example 64],300,110,> 464,distinctly more effective,650,distinctly more effective,,,,800,,,,
CCCC(O)(c1ccccc1)C1COC(=O)N1 (stereo not shown) [Example 65],170,155,175,,> 1000,,,,,> 1000,,,,
CCC(O)(CC)C1NC(=O)OC1c1ccccc1 (stereo not shown) [Example 40],75,165,430,,1000,,,,,> 1000,,,,
"CCCC(C)(COC(N)=O)COC(N)=O [Meprobamate, reference compound]",,,,,,,,,,1000,,115,150,800
"CCCC(CCC)C(=O)O [Dipropylacetate, reference compound]",,,,,,,,,,> 1000,,185,450,1000
CC1(CO)NC(=O)OC1(C)c1ccccc1 (stereo not shown) [Example 6],165,1000,> 464,,1000,,,,,> 100,,,,
"CN1C(=O)OC(C)(C)C1=O [Trimethadione, reference compound]",450,660,240,,> 1000,,,,,> 1000,,,,
O=C1NC(CBr)C(c2ccccc2)O1 (stereo not shown) [Example 73],,,,,,,,,,> 1000,,65,430,> 1000
"CC1(c2ccccc2)OC(=O)NC1CCl (stereo not shown) [Example 67, 4-Chloromethyl-5-methyl-5-phenyl oxazolidin-2-one]",,,,,,,,,,> 1000,superior,93,55,1000
O=C1NC(C(O)(c2ccccc2)c2cccc(Cl)c2)CO1 (stereo not shown) [Example 49],200,90,> 464,,> 1000,,,,,> 1000,,,,
CCC(O)(c1ccc(Cl)cc1)C1COC(=O)N1 (stereo not shown) [Example 60],175,70,> 464,,1000,,,,,> 1000,,,,
O=C1NC(CCl)C(c2ccccc2)O1 (stereo not shown) [Example 72],,,,,,,,,,> 1000,,75,540,> 1000
CC(O)(c1ccc(Cl)cc1)C1COC(=O)N1 (stereo not shown) [Example 59],165,110,> 464,,> 1000,,,,,> 1000,,,,
"CC(O)C1NC(=O)OC1c1ccccc1 (stereo not shown) [Example 5, 4-[1-(1-Hydroxyethyl)]-5-phenyl oxazolidin-2-one]",75,510,150,,> 1000,,,,,> 1000,superior,,,
